Laboratory results from PubChem BioAssay (NCI).
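1) Cells in 96-well plates. 2) Compound, 48 h, 5 concentrations. 3) Linear interpolation between surrounding doses. 4) Unreached endpoint = highest concentration. GI50 = concentration required for 50% inhibition of growth. TGI denotes the concentration required for complete inhibition of growth.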

What was measured:
Experiment in all cases: NCI-60 cell line screen, 48 h
OVCAR-3 ovarian = tested on: OVCAR-3 ovarian
A549 NSCLC = tested on: A549 NSCLC
UACC-62 melanoma = tested on: UACC-62 melanoma
BT-549 breast = tested on: BT-549 breast
NCI-H23 lung = tested on: NCI-H23 lung
HOP-62 NSCLC = tested on: HOP-62 NSCLC
NCI-H460 lung = tested on: NCI-H460 lung
HT29 colon = tested on: HT29 colon
LOX IMVI melanoma = tested on: LOX IMVI melanoma
DU-145 prostate = tested on: DU-145 prostate
IGROV1 ovarian = tested on: IGROV1 ovarian
MALME-3M melanoma = tested on: MALME-3M melanoma
SK-MEL-5 melanoma = tested on: SK-MEL-5 melanoma
SNB-75 CNS = tested on: SNB-75 CNS
SK-MEL-2 melanoma = tested on: SK-MEL-2 melanoma
SF-268 CNS = tested on: SF-268 CNS
SN12C renal = tested on: SN12C renal
T-47D breast = tested on: T-47D breast
UO-31 renal = tested on: UO-31 renal
SK-MEL-28 melanoma = tested on: SK-MEL-28 melanoma
SF-539 CNS = tested on: SF-539 CNS
KM12 colon = tested on: KM12 colon
PC-3 prostate = tested on: PC-3 prostate
SW-620 colon = tested on: SW-620 colon
A498 renal = tested on: A498 renal
RPMI-8226 leukemia = tested on: RPMI-8226 leukemia
EKVX NSCLC = tested on: EKVX NSCLC
SF-295 CNS = tested on: SF-295 CNS
SK-OV-3 ovarian = tested on: SK-OV-3 ovarian
UACC-257 melanoma = tested on: UACC-257 melanoma

`COc1csc(/C=N/NC(=O)c2[nH]c3ccc(Br)cc3c2-c2ccccc2)c1` was tested, and the GI50 (OVCAR-3 ovarian) was 32.5 nM, the TGI (OVCAR-3 ovarian) was 720 nM and the GI50 (A549 NSCLC) was 39.3 nM. The TGI (A549 NSCLC) was 22000 nM, the GI50 (UACC-62 melanoma) was 42 nM and the TGI (UACC-62 melanoma) was 16700 nM. For the same compound, the GI50 (BT-549 breast) was 30.5 nM, the TGI (BT-549 breast) was 354 nM and the GI50 (NCI-H23 lung) was 42.7 nM. The TGI (NCI-H23 lung) was 17000 nM, the GI50 (HOP-62 NSCLC) was 79.4 nM and the TGI (HOP-62 NSCLC) was 10500 nM. The GI50 (NCI-H460 lung) was 34.6 nM, the TGI (NCI-H460 lung) was 10600 nM and the GI50 (HT29 colon) was 26.7 nM. The TGI (HT29 colon) was 69.1 nM, the GI50 (LOX IMVI melanoma) was 30.2 nM and the TGI (LOX IMVI melanoma) was 18900 nM. For the same compound, the GI50 (DU-145 prostate) was 36.8 nM, the TGI (DU-145 prostate) was 11500 nM and the GI50 (IGROV1 ovarian) was 77.8 nM. For the same compound, the TGI (IGROV1 ovarian) was 17800 nM, the GI50 (MALME-3M melanoma) was 45.3 nM and the TGI (MALME-3M melanoma) was 20500 nM. The GI50 (SK-MEL-5 melanoma) was 26.3 nM, the TGI (SK-MEL-5 melanoma) was 76.9 nM and the GI50 (SNB-75 CNS) was 100 nM. It also gave a TGI (SNB-75 CNS) of 3780 nM, a GI50 (SK-MEL-2 melanoma) of 35.5 nM and a TGI (SK-MEL-2 melanoma) of 389 nM. For the same compound, the GI50 (SF-268 CNS) was 48.8 nM, the TGI (SF-268 CNS) was over 54200 nM and the GI50 (SN12C renal) was 38.7 nM. It also gave a TGI (SN12C renal) of 9100 nM, a GI50 (T-47D breast) of 3890 nM and a TGI (T-47D breast) of over 95800 nM. It also gave a GI50 (UO-31 renal) of 60.2 nM, a TGI (UO-31 renal) of over 100000 nM and a GI50 (SK-MEL-28 melanoma) of 1730 nM. For the same compound, the TGI (SK-MEL-28 melanoma) was 46500 nM, the GI50 (SF-539 CNS) was 21.7 nM and the TGI (SF-539 CNS) was 53.1 nM. It also gave a GI50 (KM12 colon) of 37.3 nM, a TGI (KM12 colon) of 10900 nM and a GI50 (PC-3 prostate) of 57.5 nM. For the same compound, the TGI (PC-3 prostate) was 48800 nM, the GI50 (SW-620 colon) was 42.4 nM and the TGI (SW-620 colon) was over 100000 nM. It also gave a GI50 (A498 renal) of 24000 nM, a TGI (A498 renal) of 70100 nM and a GI50 (RPMI-8226 leukemia) of 39.1 nM. The TGI (RPMI-8226 leukemia) was 8210 nM, the GI50 (EKVX NSCLC) was 86.3 nM and the TGI (EKVX NSCLC) was over 100000 nM. The GI50 (SF-295 CNS) was 30.3 nM, the TGI (SF-295 CNS) was 6480 nM and the GI50 (SK-OV-3 ovarian) was 51.9 nM. It also gave a TGI (SK-OV-3 ovarian) of 15500 nM and a GI50 (UACC-257 melanoma) of 635 nM.
